For orientation: melting point means the temperature, or range, at which the solid turns liquid. As for `COc1ccccc1Cc1ccc(C(=O)C2=C(O)C(=O)N(C(C)C)C2)o1`, the melting point was 123 to 124 °C.
The compound `CC(=O)SCCC(=O)N1c2ccc(Cl)cc2CCC1C(=O)O` (centres undefined) yielded a melting point of 134 to 136 °C.
As to `CCN(CC)c1nc(C#N)c(C#N)nc1Cc1ccccc1`, the melting point lay within 73 to 74 °C.
To `FC(F)(F)Oc1ccc(C2N=C(Nc3cccc(-c4cncnc4)c3)n3ccnc32)cc1` (centres undefined) belongs 120 to 130 °C; to `CNc1nc(Br)cc(Sc2ccc([N+](=O)[O-])cc2)n1`, 204 to 205 °C; to `CCOC(=O)C1CC(O)CN1C(=O)c1ccc(OC)c(OC)c1` (centres undefined), 128 °C.
Compound `CC(=O)Nc1ccc(OCC(O)CN2CCC(NC(=O)c3ccccc3)CC2)cc1` (centres undefined) showed a melting point of 226 to 228 °C.
To `Cc1cccc(N2C(=S)SCC2O)n1` (centres undefined) belongs 128 °C; to `CCN(CC)C(=O)C(C)Oc1nc(-c2ccccc2)cc2ccccc12` (centres undefined), 117 °C; to `CC1CCN(C(=O)c2ccc([C@H]3CC[C@H](NC[C@H](O)COc4ccc(O)c(NS(C)(=O)=O)c4)CC3)cc2)CC1`, 90 to 100 °C.
To `Cc1ccc(OCn2cc(Cl)cnc2=O)cc1` belongs 186 °C.
To `O=C(CC(=O)c1cc(O)ccc1O)c1ccc(OCc2ccccc2)c(OCc2ccccc2)c1` belongs 196 to 197 °C.
Turning to `N#CN1CCC(c2nn(-c3ccccc3)c3ccccc23)CC1`, the melting point was in the range of 124 to 125 °C.
`CN1CC=C(C2c3ccccc3CCc3ccccc32)CC1`: the melting point lay in the range of 96 to 98 °C.
As for `CCCCNc1cc(CNC(=O)OCC)cc(S(N)(=O)=O)c1Oc1ccccc1`, the melting point was in the range of 105 to 107 °C.
To `O=c1ccc(-c2cc(Cl)c(O)c(Cl)c2)n[nH]1` belongs > 300 °C.
The compound `COC(=O)c1cn2ccsc2n1` returned a melting point of 153 to 156 °C.
To `CC1=C(C(=O)OC(C)(C)C)C(c2cccc(Cl)c2)C(C(=O)OC(C)(C)C)=C(C)N1` belongs 190 °C; to `CCn1c(=O)c2c(nc(/C=C/c3ccc(F)c(Br)c3)n2C)n(CC)c1=O`, 218 to 219 °C; to `Cc1cc(C2CC(C)(C)CC(C)(C)C2(O)C#C[Si](C)(C)C)ccc1F` (centres undefined), 76 to 78 °C.
Consider `O=C(c1ccccc1)c1ccc(CCl)cc1`, for which the melting point lay in the range of 109 to 111 °C.
Turning to `Cn1cc(C2=C(c3cn(CCCNC(N)=O)c4ccccc34)C(=O)NC2=O)c2ccccc21`, the melting point lay in the range of 248 to 250 °C.
To `Cc1cc(NC(=O)OC(C)(C)C)c([N+](=O)[O-])cc1I` belongs 99 to 100 °C; to `O=C(NCc1ccc(Cl)cc1)c1cn2c(CCO)cc3cc(CC4CCOCC4)cc(c1=O)c32`, 204 to 206 °C; to `N#Cc1ccc(OCCCCl)cc1`, 40 to 44 °C.
In turn, `Ic1cnc(-c2ccccn2)[nH]1` registered a melting point of 175 to 179 °C.
To `O=C(N[C@H]1CCCNC1=O)c1ccccc1C(F)(F)F` belongs 155 to 156 °C; to `CC(=O)OC(c1ccccc1)C1CNC1=O` (centres undefined), 96 to 97 °C.
To `O=C(C=Cc1cc([N+](=O)[O-])ccc1Cl)N1CCc2c([nH]c3ccccc23)C1c1ccc2c(c1)OCO2` (centres undefined) belongs 146 °C; to `COc1cc(OC)n2sc(=NS(=O)(=O)c3c(-c4nnn(C)n4)cnn3C)nc2n1`, 182 to 183 °C; to `Cn1nnc2c3nc(O)c(O)nc3ccc21`, > 300 °C.
To `O=C1NC(=O)C(Cc2ccc(OCCN3C(=O)SC(c4ccccc4)C3=O)cc2)S1` (centres undefined) belongs 67 °C.
In turn, `O=C1Nc2cccc(-c3cncnc3)c2C12COc1cc3c(cc12)OCO3` (centres undefined) showed a melting point of 185 to 187 °C.
As to `CN1N=C(c2ccc(F)cc2)c2cc3nsnc3cc2CS1(=O)=O`, the melting point fell in the range of 272 to 275 °C.
To `O=C1CCc2cc(C(O)c3ccccc3)ccc2N1` (centres undefined) belongs 175 °C.
For the compound `CCOCC1OC(n2cnc3c(N)ncnc32)C(O)C1O` (centres undefined), the melting point was in the range of 110 to 112 °C.
To `CC(=O)N(CC1CC(c2ccc(Cl)cc2)=NO1)c1nnc(C)s1` (centres undefined) belongs 195 to 197 °C; to `O=c1nc(-c2ccnc(Cl)c2)sc2ccccc12`, 178 °C.
`Cc1ccc([C@H](CC(=O)O)NC(=O)Nc2c(N)cc(C)n(Cc3ccccc3Cl)c2=O)cc1`: the melting point was 145 to 147 °C.
To `C=CCSc1nnc(Cl)c2ccccc12` belongs 76 to 78 °C.
To `CC(C)n1nc(-c2c(-c3ccccc3)nn3ccc(N4CCN(c5ccccc5)CC4)cc23)ccc1=O` belongs > 240 °C.
To `Cc1nn(-c2ccccn2)cc1COc1ccc(C=O)cc1` belongs 84 to 85 °C; to `CCc1cn(S(C)(=O)=O)c2c1C(=O)CC(c1ccccc1)C2` (centres undefined), 153 to 154 °C; to `CCOC(=O)N1CCN(c2cc3nc(C(C)(C)C)sc3cc2[N+](=O)[O-])CC1`, 100 to 102 °C.
The compound `CCOC(=O)c1cnn(-c2ccc(OCC3CC3)c(C#N)c2)c1` returned a melting point of 147 to 149 °C.
`CCn1c(=O)n(O)c(=O)c2cc(F)c(N3CCOCC3)cc21` displayed a melting point of 162 to 163 °C.
As to `C=CCOC(=O)C(C(=O)OCC=C)=C1SC(O)C(O)S1` (centres undefined), the melting point is 81.2 °C.
Turning to `O=c1cc(N2CCOCC2)oc2c(-c3cccc(O)c3)cccc12`, the melting point is 203 to 205 °C.
To `Nc1nc(=O)n(C2CC(O)C(CO)O2)cc1-c1ccccn1` (centres undefined) belongs 197 to 198 °C.
As to `CC(C)OC(=O)C(C(=O)c1ccc2c(c1)OCO2)=C1SC=CS1`, the melting point lay within 136 to 138 °C.
To `Cc1cn(C(c2ccccc2)c2ccc(Cl)c([N+](=O)[O-])c2)cn1` (centres undefined) belongs 105 °C; to `O=C(Nc1ccc(-n2nc(C(F)(F)F)nc2Cl)cc1)c1ccncc1F`, 167 to 170 °C.
To `Cc1cccc(-c2[nH]c(C(C)C)nc2-c2ccc(F)c(-c3c[nH]c(C)n3)c2)n1` belongs 230 to 234 °C; to `CC(C)(Oc1ccc(Cl)cc1)C(=O)C(Oc1cccc(Cl)n1)n1cncn1` (centres undefined), 100 °C.
To `CCOC(=O)c1cn(-c2ccc(OC)c(OC)c2)cn1` belongs 125 to 126 °C.
Regarding `Cc1c(NC(=O)c2ccc(-c3ccc(F)cc3)cc2F)ccc2cc(CN3CCCCC3)cnc12`, the melting point was 186 to 187 °C.
To `CC(c1oc2ccccc2c(=O)c1-c1cccc(F)c1)n1nc(-c2cc3ccccc3s2)c2c(N)ncnc21` (centres undefined) belongs 242 to 245 °C.
`C=CC(COC(c1ccccc1)(c1ccccc1)c1ccccc1)OCCCCCCCCCCCCCCCC` (centres undefined) showed a melting point of 34 °C.
To `O=C1CC(SCc2ccccc2)C(O)(c2ccccc2)C(SCc2ccccc2)C1` (centres undefined) belongs 120 °C; to `CCn1cc(C(=O)O)c(=O)c2cc(F)c(N3CCNC(COC(C)C)C3)cc21` (centres undefined), 144 to 146 °C.
To `COc1cc2[nH]c(C)c(C(=O)C(=O)N3CCC(Oc4ccc(C(F)(F)F)cc4)CC3)c2cc1OC` belongs 211 to 213 °C.
`CCOC(=O)N(CC(=O)NCCc1ccc(OC)c(OC)c1)c1cccc(C(N)=O)c1` returned a melting point of 104 to 105 °C.
The compound `COc1ccc(C2(O)c3c(C)c(NC(=O)CC(C)(C)C)c(C)c(C)c3OC2(C)C)cc1` (centres undefined) showed a melting point of 98 to 99 °C.
The compound `Cc1cc(O)c(SCC(C)C)c(=O)o1` came in with a melting point of 106 to 108 °C.
To `CCOCc1cc(I)c(=O)[nH]c1C` belongs 220 to 222 °C; to `CCCCOC(=O)c1ccc2ccc(C(=O)NCc3ccc(O)c(O)c3)nc2c1OC(=O)C(C)(C)C`, 189 °C.
To `COc1ccc(OC)c(/C=C/C(=O)/C=C/C(=O)O)c1` belongs 145 to 146 °C; to `CS(=O)(=O)OC(c1cccc(C(OS(C)(=O)=O)(C(F)(F)F)C(F)(F)F)c1)(C(F)(F)F)C(F)(F)F`, 125 °C; to `COc1c(C#N)c(OC)c(OC)c(OC)c1OC`, 64 °C.
To `COc1ccc(C2Sc3c(ccc4ccccc34)N(CCN(C)C)C(=O)C2OC(=O)c2ccccc2O)cc1` (centres undefined) belongs 150 to 151 °C; to `COc1ccc(Cc2nc3c(c(OC)nn3C(C)CCCc3ccccc3)c(=O)[nH]2)cc1OC` (centres undefined), 148 °C.
`CN(C)CCn1c(=O)c2cc(N)ccc2c2cnc3cc4c(cc3c21)OCO4` returned a melting point of 245 to 246 °C.
`COc1ccc(C(=O)Cc2c(Cl)cncc2Cl)c2c(CC(=O)Nc3cccnc3)coc12` came in with a melting point of 252 to 255 °C.
Compound `O=C1NC(=O)C(=Cc2ccc(-c3cc(C4CCCCC4)c4oc(C(Cl)(Cl)Cl)nc4c3)nc2)S1` registered a melting point of 253 °C.
With `CC1(C)OCC(NC2COC(C)(C)OC2)CO1`, the melting point stood at 65 °C.
To `CSC1C(=O)Nc2c(Oc3ccccc3N)cccc21` (centres undefined) belongs 168 to 170 °C; to `CCCCCCSc1c(O)cc(C)oc1=O`, 69 to 70 °C; to `Cc1ccccc1C(=O)c1c(C)nn(C)c1O`, 82 to 83 °C.
Turning to `CCCCCCC(=O)N[C@@H]1N=C(c2ccccc2)c2ccccc2N(C)C1=O`, the melting point is 49 to 54 °C.
To `CCCCCCCC/C(=C\C=C\C(=O)O)c1ccc(OC)cc1` belongs 109 to 110 °C; to `COc1ccc2[nH]c3cc(C(=O)O)c4c(c3c2c1)C(=O)NC4=O`, > 300 °C.
To `CCOC(=O)c1cnc2ccc(F)cc2c1O` belongs > 260 °C; to `C=CCN(CC=C)Cc1nc(-c2ncn3c2[C@@H]2CCN2C(=O)c2c-3ccc(F)c2Cl)no1`, 103 to 104 °C.
Consider `CSc1ncc(N(C)C(=O)C(C)(C)c2cc(C(F)(F)F)cc(C(F)(F)F)c2)c(-c2ccccc2C)n1`, for which the melting point fell in the range of 124 to 125 °C.
To `Cc1cccc(C)c1NC(=O)CS(C)=O` (centres undefined) belongs 112 to 114 °C; to `COc1ccc(-n2cnnc2SC)cc1`, 172 °C.
To `Nc1ncc(CCN2CCN(c3ccccn3)CC2)s1` belongs 158 to 161 °C; to `COCc1cc(C(O)CNCCCCCOCCc2ccc(F)cc2)ccc1O` (centres undefined), 86 to 87 °C.
To `COC(=O)c1nc(-c2ccc(Br)c(OC)c2F)cc(NC(C)=O)c1Cl` belongs 164 to 165 °C.

These data come from a melting point compilation (Tetko et al.; mined from patent text by program, amines drawn as free bases though some values may be those of a salt).
